{
  "source": "patent US20180127748A1",
  "about": "“METHODS RELATING TO THE PREVENTION AND TREATMENT OF DRUG RESISTANCE” (THE GENERAL HOSPITAL CORPORATION, priority 2015, published 2018)",
  "key": {"RPE cells [1]": {"test_system": "RPE cells", "assay": "Screen of chemical and metabolic stresses for site-specific copy gain (FISH)", "format": "cell-based, human", "details": "24 h treatment: 60 μM H2O2, 2 μg/ml Tunicamycin, 2 mM DTT, 5 mM NAC, 1 μM DMNQ", "method": "Cells were treated with the following chemical and metabolic stresses for 24 hours at doses used in the literature: 2 μg/ml Tunicamycin (TU, Abcam), 60 μM H2O2(Thermo Fisher Scientific), reduced-serum DMEM (0.1% FBS), Glucose-free DMEM (No Gluc, GIBCO), 2 mM DTT (Sigma), 5 mM N-acetyl Cysteine (NAC, Sigma), and 1 μM 2,3-Dimethoxy-1,4-naphthoquinone (DMNQ, Sigma). For heat shock (HS) treatment, cells were incubated at 43° C. for 30 minutes and returned to 37° C. for 24 hours prior to collection.\nFISH was performed as described in (Manning et al. 2010; Black et al. 2013). For RPE cells, copy gain was scored as any cell with 3 or more distinct foci. Approximately 100 cells for each replicate were scored for all experiments. All FISH experiments include at least 2 biological replicates. For each experiment at least one replicate includes FACS and western blot from the same cells used for FISH. For knockdown experiments, at least two different siRNA were used for each target. Results are presented as the average from both of the independent siRNAs.\nFISH was performed as described in (Manning et al. 2010; Black et al. 2013). Probes for 1q12h, 1q telomere, chromosome 8 centromere (alpha satellite), and X centromere (alpha satellite) were purchased from Rainbow Scientific. Probes for Zebrafish BCL9 (CH73-15J19) and Zebrafish IGBP1 (CH73-223D24) were purchased as BAC clones from Children's Hospital Oakland Research Institute (CHORI BacPac) clone repository. Probes for 1q21.2 (BCL9) and 1q23.3 were purchased from Agilent (SureFISH). BACS were prepared utilizing PureLink HiPure™ Plasmid Filter Maxiprep kit (Life Technologies) using the recommended modified wash buffer. Probes were nick translated (Abbot Molecular Kit) in the presence of fluorescently labeled dTTP (Enzo Life Science). Images of multiple planes of fields of nuclei were acquired on an Olympus IX81™ Spinning Disk Microscope and analyzed using Slidebook 5.0™ software. We used a conservative scoring metric for copy gain. Any foci that were touching were scored as a single copy to prevent increased numbers due to normally replicated foci. For RPE cells, copy gain was scored as any cell with 3 or more distinct foci. For 293T cells, copy gain was scored for any cell with 5 or more distinct foci. For UMRC2 cells, copy gain was scored for any cell with 6 or more foci. For SK-N-AS cells, copy gain was scored for any cell with 5 or more foci. For MDA-MB-468 cells, copy gain was scored for any cell with 5 or more foci. For MDA-MB-231 cells, copy gain was scored for any cell with 7 or more foci. Approximately 100 cells for each replicate were scored for all experiments. All FISH experiments include at least 2 biological replicates. For each experiment, at least one replicate includes FACS and western blot from the same cells used for FISH. For knockdown experiments, at least two different siRNA were used for each target. Results are presented as the average from both of the independent siRNAs."}, "KDM4A": {"test_system": "KDM4A", "assay": "Western blot of KDM4A protein levels in hypoxia", "format": "cell-based, human", "details": "RPE cells, 1% O2; for KDM4A stabilization / protein levels in hypoxia: 2 mM succinate", "method": "Western blots were performed as in (Black et al. 2010).\nWestern Blots. Western blots were performed as in (Black et al. 2010). Briefly, adherent cells were either scraped directly into PBS, or washed with PBS, trypsinized and collected by centrifuging at 2,000 RPM for 5 minutes. For preparation of whole-cell lysates, cell pellets were washed once in ice-cold PBS and resuspended in RIPA lysis buffer [50 mM Tris pH 7.4, 150 mM NaCl, 0.25% Sodium Deoxycholate, 1% NP40, 1 mM EDTA, 10% Glycerol] supplemented with cOmplete protease inhibitor and PhosSTOP phosphatase inhibitor cocktails (Roche). Cells were lysed on ice for 15 minutes and immediately frozen at −80° C. for 10 minutes. Lysates were subsequently sonicated at 70% amplitude for 15 minutes in a QSonica Q700 sonicator and cleared of cell debris by centrifuging at 12,000 RPM for 15 minutes, before being analyzed by western blotting. For HIF1α and HIF2a expression, adherent cells were washed twice with ice-cold PBS and scraped directly in warmed 1× Laemmli buffer. Samples were sonicated at 70% amplitude for 15 minutes in a QSonica Q700™ and boiled at 95° C. for 10 minutes immediately prior to western blotting."}, "KDM6B": {"biological_target": "KDM6B (Homo sapiens, UniProt O15054)", "sequence (O15054 whole entry, species assumed)": "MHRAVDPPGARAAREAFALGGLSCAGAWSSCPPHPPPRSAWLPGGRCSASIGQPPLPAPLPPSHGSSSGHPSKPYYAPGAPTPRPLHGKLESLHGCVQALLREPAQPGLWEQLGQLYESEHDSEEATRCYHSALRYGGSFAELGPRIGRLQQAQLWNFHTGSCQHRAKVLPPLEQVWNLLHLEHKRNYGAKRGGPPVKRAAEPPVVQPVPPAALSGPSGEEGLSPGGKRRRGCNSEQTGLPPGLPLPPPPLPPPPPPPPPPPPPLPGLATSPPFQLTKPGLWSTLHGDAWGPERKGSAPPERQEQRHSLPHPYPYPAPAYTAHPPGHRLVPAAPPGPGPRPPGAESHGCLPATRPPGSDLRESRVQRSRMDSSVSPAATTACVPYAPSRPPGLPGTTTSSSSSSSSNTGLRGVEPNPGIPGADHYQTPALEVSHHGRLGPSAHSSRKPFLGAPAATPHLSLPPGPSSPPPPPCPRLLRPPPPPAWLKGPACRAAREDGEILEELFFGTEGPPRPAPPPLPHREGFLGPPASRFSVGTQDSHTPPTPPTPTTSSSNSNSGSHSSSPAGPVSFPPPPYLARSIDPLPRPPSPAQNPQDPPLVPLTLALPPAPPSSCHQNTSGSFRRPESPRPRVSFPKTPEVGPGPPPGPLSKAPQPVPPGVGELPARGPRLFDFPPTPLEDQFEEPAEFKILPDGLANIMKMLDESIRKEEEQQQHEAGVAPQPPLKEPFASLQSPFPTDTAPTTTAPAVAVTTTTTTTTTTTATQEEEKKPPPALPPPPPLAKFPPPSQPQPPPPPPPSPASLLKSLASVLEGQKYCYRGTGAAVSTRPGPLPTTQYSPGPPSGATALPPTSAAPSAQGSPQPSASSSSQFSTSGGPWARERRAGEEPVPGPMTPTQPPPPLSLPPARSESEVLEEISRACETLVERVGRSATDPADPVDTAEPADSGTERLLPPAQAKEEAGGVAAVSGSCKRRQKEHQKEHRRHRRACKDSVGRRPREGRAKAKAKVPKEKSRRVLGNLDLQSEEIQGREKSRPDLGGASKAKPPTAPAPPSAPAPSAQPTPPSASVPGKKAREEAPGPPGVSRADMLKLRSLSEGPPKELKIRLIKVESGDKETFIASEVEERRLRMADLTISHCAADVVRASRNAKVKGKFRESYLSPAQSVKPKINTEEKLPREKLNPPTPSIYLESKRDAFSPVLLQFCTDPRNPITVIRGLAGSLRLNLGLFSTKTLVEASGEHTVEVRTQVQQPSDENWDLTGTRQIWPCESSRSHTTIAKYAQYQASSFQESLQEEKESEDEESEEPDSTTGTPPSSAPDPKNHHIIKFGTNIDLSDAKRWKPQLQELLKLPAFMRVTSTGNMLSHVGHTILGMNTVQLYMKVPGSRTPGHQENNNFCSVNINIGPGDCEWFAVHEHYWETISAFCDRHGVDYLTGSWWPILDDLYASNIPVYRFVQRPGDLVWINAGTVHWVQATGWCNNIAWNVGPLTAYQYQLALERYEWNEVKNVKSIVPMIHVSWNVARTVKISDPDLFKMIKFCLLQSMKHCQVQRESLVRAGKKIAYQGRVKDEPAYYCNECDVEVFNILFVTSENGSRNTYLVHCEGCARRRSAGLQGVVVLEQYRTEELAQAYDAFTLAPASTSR", "details": "Wang et al. 2013; cited from earlier work"}, "RPE cells [2]": {"test_system": "RPE cells", "assay": "FISH for hypoxia-dependent site-specific copy gain", "format": "cell-based, human", "method": "Cells were plated onto culture dishes and allowed to adhere for 20-24 hours in normoxia (5% CO2, 21% O2, and 74% N2). For hypoxic treatment, cells were maintained in a HERA™ Cell 150 incubator (Thermo Scientific) flushed with 5% CO2, 1% O2, and balanced with N2 for the duration of the experiment. Incubator calibrations and verifications were carried out by Bianchi Associates Calibrations/Verifications.\nFor G1/S synchronization, cells were treated with 2 mM hydroxyurea (HU, Sigma) for 20 hours. To release, cells were washed twice with culture medium pre-conditioned in normoxia or hypoxia, and supplied with fresh pre-conditioned media. For JIB-04 treatment, normoxic cells were pre-treated with 62.5 nM JIB-04 (Xcessbio) for 24 hours, and then treated again with JIB-04 and either transferred to 1% O2 or maintained in normoxia for an additional 24 hours. […]\nFISH was performed as described in (Manning et al. 2010; Black et al. 2013). For RPE cells, copy gain was scored as any cell with 3 or more distinct foci. Approximately 100 cells for each replicate were scored for all experiments. […]\nFISH was performed as described in (Manning et al. 2010; Black et al. 2013). […] Images of multiple planes of fields of nuclei were acquired on an Olympus IX81™ Spinning Disk Microscope and analyzed using Slidebook 5.0™ software. […] Any foci that were touching were scored as a single copy to prevent increased numbers due to normally replicated foci. For RPE cells, copy gain was scored as any cell with 3 or more distinct foci. For 293T cells, copy gain was scored for any cell with 5 or more distinct foci. For UMRC2 cells, copy gain was scored for any cell with 6 or more foci. For SK-N-AS cells, copy gain was scored for any cell with 5 or more foci. For MDA-MB-468 cells, copy gain was scored for any cell with 5 or more foci. For MDA-MB-231 cells, copy gain was scored for any cell with 7 or more foci. Approximately 100 cells for each replicate were scored for all experiments. […]"}, "KDM4 family": {"test_system": "KDM4 family", "details": "Wang et al. 2013; cited from earlier work"}, "RPE cells [3]": {"test_system": "RPE cells", "assay": "Cell cycle analysis by flow cytometry", "format": "cell-based, human", "details": "for cell cycle progression in hypoxia: 2 mM succinate", "method": "Asynchronously growing, or G1/S arrested cells were prepared and fixed as in (Black et al. 2010). Cells were stained with 10 μM EdU for 1 hour prior to collection. Cell cycle was analyzed by PI staining or EdU incorporation using Click-IT EdU™ Flow Cytometry Assay Kit (Life Technologies). Flow cytometry of CD4+ T cells and cell cycle distribution were analyzed using a BD FACS ARIA II™."}, "KDM5A": {"biological_target": "KDM5A (Homo sapiens, UniProt P29375)", "sequence (P29375 whole entry, species assumed)": "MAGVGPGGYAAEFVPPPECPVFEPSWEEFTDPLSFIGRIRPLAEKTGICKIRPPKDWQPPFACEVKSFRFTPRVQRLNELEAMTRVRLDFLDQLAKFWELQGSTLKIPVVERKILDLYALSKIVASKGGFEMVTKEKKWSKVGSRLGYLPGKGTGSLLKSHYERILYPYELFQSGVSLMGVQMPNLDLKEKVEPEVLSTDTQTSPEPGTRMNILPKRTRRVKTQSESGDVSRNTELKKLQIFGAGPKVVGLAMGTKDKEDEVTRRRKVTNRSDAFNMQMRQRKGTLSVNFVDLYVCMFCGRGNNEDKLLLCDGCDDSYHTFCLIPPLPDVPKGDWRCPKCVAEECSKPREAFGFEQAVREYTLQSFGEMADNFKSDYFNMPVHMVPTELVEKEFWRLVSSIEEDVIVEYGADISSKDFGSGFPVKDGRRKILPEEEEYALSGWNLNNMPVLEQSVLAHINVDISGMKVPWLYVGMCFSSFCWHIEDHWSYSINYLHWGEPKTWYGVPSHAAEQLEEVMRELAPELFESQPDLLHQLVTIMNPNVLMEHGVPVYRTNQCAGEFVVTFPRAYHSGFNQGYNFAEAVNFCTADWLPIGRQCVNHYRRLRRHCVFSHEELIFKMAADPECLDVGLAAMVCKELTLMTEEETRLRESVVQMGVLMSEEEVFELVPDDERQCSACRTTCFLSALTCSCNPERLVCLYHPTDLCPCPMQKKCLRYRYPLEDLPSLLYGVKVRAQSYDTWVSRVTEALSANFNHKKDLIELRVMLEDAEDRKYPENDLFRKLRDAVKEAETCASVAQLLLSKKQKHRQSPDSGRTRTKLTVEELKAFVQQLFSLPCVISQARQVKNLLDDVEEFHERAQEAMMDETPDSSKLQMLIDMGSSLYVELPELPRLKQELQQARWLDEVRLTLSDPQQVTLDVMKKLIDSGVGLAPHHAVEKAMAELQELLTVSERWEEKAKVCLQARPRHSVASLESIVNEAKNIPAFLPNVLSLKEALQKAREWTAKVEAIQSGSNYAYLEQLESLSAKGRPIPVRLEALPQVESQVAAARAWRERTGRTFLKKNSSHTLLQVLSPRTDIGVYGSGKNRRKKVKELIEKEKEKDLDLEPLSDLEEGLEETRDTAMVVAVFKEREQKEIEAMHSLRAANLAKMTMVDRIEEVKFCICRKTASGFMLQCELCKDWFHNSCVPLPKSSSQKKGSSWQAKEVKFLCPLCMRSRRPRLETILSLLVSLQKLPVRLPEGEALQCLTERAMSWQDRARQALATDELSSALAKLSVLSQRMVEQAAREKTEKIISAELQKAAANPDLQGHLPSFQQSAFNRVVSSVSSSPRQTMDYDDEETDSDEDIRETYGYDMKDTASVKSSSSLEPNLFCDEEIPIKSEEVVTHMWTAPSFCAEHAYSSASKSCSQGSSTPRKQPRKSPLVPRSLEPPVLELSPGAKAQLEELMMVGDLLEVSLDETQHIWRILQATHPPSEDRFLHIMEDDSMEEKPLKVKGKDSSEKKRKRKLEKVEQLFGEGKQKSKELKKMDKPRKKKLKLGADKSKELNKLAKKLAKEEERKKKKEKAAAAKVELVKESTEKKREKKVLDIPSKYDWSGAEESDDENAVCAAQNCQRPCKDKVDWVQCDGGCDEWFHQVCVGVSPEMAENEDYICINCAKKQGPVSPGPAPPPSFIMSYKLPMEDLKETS", "details": "Wang et al. 2013; cited from earlier work"}, "JmjC-containing proteins": {"test_system": "JmjC-containing proteins", "details": "Smith et al. 2007; Black et al. 2012; cited from earlier work"}},
  "note": "Entries after “also recorded” stand apart in the source; their conditions may differ.",
  "data": [
    {"compound": "COC1=C(OC)C(=O)c2ccccc2C1=O", "note": "[DMNQ, 2,3-Dimethoxy-1,4-naphthoquinone]", "values": [
      {"measurement": "site-specific copy gain (FISH for 1q12h, Chr 8, 1q23.3, 1q21.2)", "setting": "RPE cells [1]", "value": "did not induce site-specific copy gain; also recorded: do not induce site-specific copy gains"}
    ]},
    {"compound": "O[C@@H](CS)[C@@H](O)CS", "note": "[DTT]", "values": [
      {"measurement": "site-specific copy gain (FISH for 1q12h, Chr 8, 1q23.3, 1q21.2)", "setting": "RPE cells [1]", "value": "did not induce site-specific copy gain; also recorded: do not induce site-specific copy gains"}
    ]},
    {"compound": "OO", "note": "[H2O2]", "values": [
      {"measurement": "site-specific copy gain (FISH for 1q12h, Chr 8, 1q23.3, 1q21.2)", "setting": "RPE cells [1]", "value": "does not promote copy gain"}
    ]},
    {"compound": "Clc1ccc(N/N=C(\\c2ccccc2)c2ccccn2)nc1", "note": "[JIB-04]", "values": [
      {"measurement": "KDM4A protein levels in hypoxia", "setting": "KDM4A; JIB-04 62.5 nM", "value": "did not substantially alter; also recorded: does not alter KDM4A protein levels"},
      {"measurement": "inhibition of KDM6B", "setting": "KDM6B", "value": "inhibits"},
      {"measurement": "hypoxia-dependent copy gain of 1q12h (FISH)", "setting": "RPE cells [2]; 62.5 nM JIB-04 pre-treated 24 h, treated again, 1% O2 24 h", "value": "significantly reduced; also recorded: blocks hypoxia-dependent copy gain"},
      {"measurement": "inhibition of the KDM4 family", "setting": "KDM4 family", "value": "inhibits"},
      {"measurement": "cell cycle profiles in hypoxia", "setting": "RPE cells [3]; JIB-04 62.5 nM, 1% O2", "value": "did not substantially alter; also recorded: no difference in cell cycle phases"},
      {"measurement": "inhibition of KDM5A", "setting": "KDM5A", "value": "inhibits"}
    ]},
    {"compound": "CC(=O)N[C@@H](CS)C(=O)O", "note": "[N-Acetyl Cysteine, N-acetyl Cysteine]", "values": [
      {"measurement": "site-specific copy gain (FISH for 1q12h, Chr 8, 1q23.3, 1q21.2)", "setting": "RPE cells [1]", "value": "did not induce site-specific copy gain"},
      {"measurement": "site-specific copy gain (FISH for 1q12h, Chr 8, 1q23.3, 1q21.2)", "setting": "RPE cells [1]; listed as N-acetyl Cysteine", "value": "do not induce site-specific copy gains"}
    ]},
    {"compound": "O=C(O)CCC(=O)O", "note": "[succinate]", "values": [
      {"measurement": "inhibition of JmjC-containing proteins", "setting": "JmjC-containing proteins", "value": "can be inhibited"},
      {"measurement": "KDM4A stabilization / protein levels in hypoxia", "setting": "KDM4A", "value": "does not alter KDM4A protein levels"},
      {"measurement": "KDM4A stabilization / protein levels in hypoxia", "setting": "KDM4A; listed as Succinate", "value": "did not alter"},
      {"measurement": "hypoxia-dependent copy gain of 1q12h (FISH)", "setting": "RPE cells [2]; 2 mM succinate, 48 h normoxia then 1% O2 24 h", "value": "can be suppressed"},
      {"measurement": "hypoxia-dependent copy gain of 1q12h (FISH)", "setting": "RPE cells [2]; 2 mM succinate, 48 h normoxia then 1% O2 24 h, listed as Succinate", "value": "sufficient to abrogate"},
      {"measurement": "cell cycle progression in hypoxia", "setting": "RPE cells [3]; 1% O2", "value": "no difference in cell cycle phases"},
      {"measurement": "cell cycle progression in hypoxia", "setting": "RPE cells [3]; 1% O2, listed as Succinate", "value": "did not alter"}
    ]},
    {"compound": "Tunicamycin", "values": [
      {"measurement": "site-specific copy gain (FISH for 1q12h, Chr 8, 1q23.3, 1q21.2)", "setting": "RPE cells [1]", "value": "does not promote copy gain"}
    ]}
  ]
}
